In this experiment the test system is HCC patient-derived spheroids (primary HCC tumorspheres). Description: HCC patient-derived spheroid viability (CellTiterGlo 3D, ATP quantification). Type of experiment: cell-based, human. The following applies: HCC spheroids from 15 different HCC patients; 6 days; H3L3 10 μg/mL, sorafenib 10 μM, nivolumab 10 μg/mL; vs control mAb; FIG. 1C. An excerpt:
Fragments of tumor tissue (5×5 mm to 8×8 mm size) were excised from tumor mass of HCC patients (n=15 different donors, Table 2) and then processed with enzymatic and mechanical dissociation to generate clusters of tumor cells similarly as described recently (Crouchet E, et al., Nat Commun 2021; 12:5525; Jühling F, et al., Gut 2021; 70:157-69). Aggregates of cells were assembled into spheroids in 96-well Black/Clear Bottom Low Flange Ultra-Low Attachment Microplates (Corning) and cultured in MammoCult basal medium (STEMCELL Technologies), supplemented with human proliferation supplement (3.4%), hydrocortisone (0.056%), heparin (0.011%) and 50% patients' own serum.
Tumorspheres were treated for 6 days with 10 μg/mL isotype control mAb, with 10 μg/mL anti-Claudin-1 mAb “H3L3” (Table 1), with sorafenib (10 μM, Selleckchem) or with Nivolumab (10 μg/mL, Selleckchem) with at least duplicates per condition. Tumorsphere viability was assessed at day 6 using CellTiterGlo 3D (Promega) according to the manufacturer's instructions.
Background: Cellular ATP, detected with luciferase, serves as a proxy for viable cell number.

The record followed here is patent US20260015416A1, “TREATMENT OF DRUG-RESISTANT HEPATOCELLULAR CARCINOMA” (Alentis Therapeutics AG, priority 2022, published 2026).

For the compound `CNC(=O)c1cc(Oc2ccc(NC(=O)Nc3ccc(Cl)c(C(F)(F)F)c3)cc2)ccn1` [sorafenib, 4-[4-[[4-chloro-3-(trifluoromethyl)phenyl]carbamoylamino]phenoxy]-N -methyl-pyridine-2-carboxamide, reference compound], the “response rate (defined as a mean decrease in cell viability of >15%)” value was 33%.

Turning to nivolumab [reference compound], the “response rate (defined as a mean decrease in cell viability of >15%)” value turned out to be 15%.
